# Laboratory results from US6403651B1, “Mediation of circadian rhythms” (Luminis Pty Limited, priority 1997, dated 2002).
# Key:
# [1] = tested on: core body temperature rhythm; assay: Core body temperature rhythm studies; assay type: in vivo, rat; details: DOI 0.5 mg/kg subcutaneously at CT18, rats
# Protocol: Groups of 5 rats were implanted with temperature transmitters under 3% halothane/oxygen anaesthesia and kept in individual cages on a 12L: 12D photoperiod. Five days after implanting the transmitters, the lights were turned off at the normal time (ZT12) and remained off for 5 days. The animals were injected subcutaneously with either DOI (0.5 mg/kg) or saline vehicle at CT18 (ie 30 hours after last lights off). The temperature was sampled at 10 minute intervals. Five days after the drug treatment the animals were re-entrained to the LD cycle for 8 days and either exposed to a 5 minute/20 lux light pulse 30 hours after re-initiation of constant darkness or left untreated. To determine any delays in the temperature rhythm, the time of the day that the temperature dropped below the group daily mean (37.4° C.) was calculated and the mean delay±SEM determined.
# [2] = tested on: melatonin production (urinary aMT.6S excretion); assay: 6-Sulphatoxymelatonin rhythmicity after agonist administration at CT18; assay type: in vivo, rat; details: DOI 0.5 mg/kg (1.4 μmole/kg) at CT18, rats in continuous darkness
# Protocol: (§1) Male albino wistar rats (100 g, n=5-10) were housed in metabolism cages in lightproof environment chambers in 12 hours of light followed by 12 hours of darkness, designated 12L:12D. After 3-4 days acclimation to a liquid diet (Osmolite HN) hourly urine collections commenced. The general experimental design was:
# Night 1: Control collection-lights remained off from lights out for the remainder of the experiment.
# Night 2: Drug administration or light pulses administered at CT 18, i.e., 6 hours after the subjective lights out. Urine collections were maintained throughout the subjective night.
# Nights 3 & 4: Urine collections continued to determine any entraining effects of the stimuli.
# (§2) Melatonin production was monitored by the urinary excretion of 6-sulphatoxymelatonin (aMT.6S), determined by radioimmunoassay. The time of onset of metabolite excretion was defined as the time of day that the excretion rate exceeded 20 pmol/h.
# Two lighting conditions were used to investigate the effects of drugs on SCN/pineal gland function; animals held in a light: dark cycle (L:D; Type VI method of Aschoff) and animals acutely transferred to continuous darkness (DD; Type II method of Aschoff) [Aschoff J. Response curves in circadian periodicity. In Aschoff J., ed. Circadian Clocks. Amsterdam: North Holland Publishing, 1965:95-111]. […]
# [3] = tested on: DOI induced phase delay in melatonin production; assay: Effects of serotonin antagonists on the melatonin response to DOI; assay type: in vivo, rat; details: antagonist 0.07 μmole/kg 30 minutes prior to DOI (1.4 μmole/kg) at CT18
# Protocol: as §1, §2
# The effects of the serotonin antagonists ritanserin and ketanserin on the melatonin response to DOI was determined. Both drugs were administered in doses of 0.7, 0.28 and 0.07 μmole/kg, 30 minutes prior to DOI (1.4 μmole/kg; 0.5 mg/kg) at CT 18; In addition, ritanserin (6.3 μmole/kg) and ketanserin (18 μmole/kg) were administered 30 minutes prior to saline injection at CT 18. Both antagonists were dissolved in DMSO and injected in a volume of 200 μl.
# [4] = tested on: DOI induced c-Fos in the rat SCN; assay: Effects of antagonists on DOI induced c-Fos in the SCN; assay type: in vivo
# Protocol: As a check on the specificity of the response (SCN versus direct pineal effects) experiments were also conducted to monitor c-Fos induction in the SCN in response to the treatments. Animals were sacrificed by decapitation 2 hours after treatments. Brains were removed immediately and fixed by immersion in a 4% solution of paraformaldehyde in 0.1 M buffer (pH 7.4) at room temperature. After approximately 30 hours in the fixative solution at room temperature, the brains were briefly rinsed in phosphate buffered saline (PBS) and 70 μm coronal sections were obtained on a microtome. Free floating sections were permeabilised in a 0.3% solution of Triton X-100 in PBS at 4° C. overnight. […] The immunopositive cells were quantified using a computerised image analysis system.
# To determine the effects of the antagonists on c-Fos induction in the SCN, ritanserin and ketanserin were injected in doses of 1.4, 0.7 and 0.14 μmole/kg at ZT 17.5. […] The response to ritanserin (6.3 μmole/kg) and ketanserin (18 μmole/kg) administered 30 minutes prior to saline injection at CT 18 was also determined.
# [5] = tested on: light pulse induced phase delay in aMT.6S onset; assay: Effect of serotonin antagonists on the melatonin response to a light pulse; assay type: in vivo, rat; details: metergoline 15 mg/kg or ritanserin 3 mg/kg at CT17.5, light 2 lux/1 minute at CT18
# Protocol: Male albino wistar rats (100 g, n=5-10) were housed in metabolism cages in lightproof environment chambers in 12 hours of light followed by 12 hours of darkness, designated 12L:12D. After 3-4 days acclimation to a liquid diet (Osmolite HN) hourly urine collections commenced. The general experimental design was: Melatonin production was monitored by the urinary excretion of 6-sulphatoxymelatonin (aMT.6S), determined by radioimmunoassay. The time of onset of metabolite excretion was defined as the time of day that the excretion rate exceeded 20 pmol/h. To determine the effects of the serotonin antagonist, metergoline (15 mg/kg), ritanserin (3 mg/kg) and LY-53,857 (3 mg/kg) on the melatonin response to a light pulse, the drugs were administered at CT17.5. At CT18, a 2 lux light pulse was given for one minute. Using similar methodology the effects on c-fos induction in the SCN were determined.
# [6] = molecular target: T1, 5-HT2c receptors (Homo sapiens, UniProt P28335); details: ritanserin versus ketanserin, stated as known; cited from earlier work
# T1 sequence (P28335 33-458): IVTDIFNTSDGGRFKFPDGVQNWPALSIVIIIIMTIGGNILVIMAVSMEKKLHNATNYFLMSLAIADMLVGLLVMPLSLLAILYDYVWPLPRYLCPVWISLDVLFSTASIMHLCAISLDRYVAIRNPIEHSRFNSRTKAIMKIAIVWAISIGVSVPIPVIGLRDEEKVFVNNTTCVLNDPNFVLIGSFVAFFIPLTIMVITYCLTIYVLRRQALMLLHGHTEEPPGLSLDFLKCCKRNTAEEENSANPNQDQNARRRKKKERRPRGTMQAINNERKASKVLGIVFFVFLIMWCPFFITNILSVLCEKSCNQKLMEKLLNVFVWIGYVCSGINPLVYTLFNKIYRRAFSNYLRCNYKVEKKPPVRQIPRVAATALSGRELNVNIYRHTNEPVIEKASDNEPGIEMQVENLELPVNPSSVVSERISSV
compound,measurement,setting,value
"COc1cc(CC(C)N)c(OC)cc1I (racemic) [DOI, (+/−)-1-(4-iodo-2,5-dimethoxy-phenyl)-2-aminopropane]",morning decline in body temperature,[1],significantly delayed
same,melatonin metabolite (aMT.6S) excretion immediately following injection,[2],acute decrease
O=C(c1ccc(F)cc1)C1CCN(CCn2c(=O)[nH]c3ccccc3c2=O)CC1 [ketanserin],effect on DOI induced phase delay in melatonin production,[3],ineffective
same,number of cells positive for c-Fos per unilateral SCN after DOI,[4]; antagonist 0.7 μmole/kg 30 minutes before DOI (1.4 μmole/kg),significantly greater (P<0.05) than those observed following ritanserin 0.7 μmole/kg but not significantly different from the vehicle control
CN1C[C@H](CNC(=O)OCc2ccccc2)C[C@@H]2c3cccc4c3c(cn4C)C[C@H]21 [metergoline],block of the phase delay in aMT.6S onset induced by the light pulse,[5],failure of the antagonists to block the phase delay
Cc1nc2sccn2c(=O)c1CCN1CCC(=C(c2ccc(F)cc2)c2ccc(F)cc2)CC1 [ritanserin],block of the phase delay in aMT.6S onset induced by the light pulse,[5],failure of the antagonists to block the phase delay
same,effect on DOI induced phase delay in melatonin production,[3],inhibits
same,affinity for 5-HT2c receptors relative to ketanserin,[6],10 fold
same,inhibition of the increase in appearance of c-Fos caused by a 5-HT2c high affinity compound,[4]; comparison of ritanserin with ketanserin pre-treatment,greater effect than ketanserin
